Values quoted from earlier work in patent US20210059962A1, “STIMULATION OF T REGULATORY CELLS BY CANNABIDIOL AS A MEANS OF TREATING ARTHRITIS AND AUTOIMMUNITY” (priority 2019, published 2021).

What was measured:
[1] = tested on: HUT-78 T-cells
[2] = tested on: NK cells
[3] = tested on: HTLV-1 positive B-cells
[4] = tested on: B-cells
[5] = tested on: eosinophilic cells

| SMILES | IL-10 production [1] | constitutive production of IL-8 ([2]; constitutive) | constitutive production of MIP-lalpha ([2]; constitutive) | constitutive production of MIP-lbeta ([2]; constitutive) | constitutive production of RANTES ([2]; constitutive) | phorbol ester stimulated production of GM-CSF ([2]; phorbol ester stimulated) | phorbol ester stimulated production of IFN-gamma ([2]; phorbol ester stimulated) | phorbol ester stimulated production of TNF-alpha ([2]; phorbol ester stimulated) | MIP-lbeta production [3] | IL-8 production [4] | MIP-1alpha production [4] | MIP-1beta production [4] | IL-8 production [5] | MIP-lbeta production [5] |
| --- | --- | --- | --- | --- | --- | --- | --- | --- | --- | --- | --- | --- | --- | --- |
| C=C(C)[C@@H]1CCC(C)=C[C@H]1c1c(O)cc(CCCCC)cc1O [CBD, 2-[3-methyl-6-(1-methylethenyl)-2-cyclohexen-1-yl]-5-pentyl-1,3-benzenedi-of] | strongly inhibited |  |  |  |  |  |  |  |  |  |  |  |  |  |
| CCCCCc1cc(O)c2c(c1)OC(C)(C)[C@@H]1CCC(C)=C[C@@H]21 [THC, delta9 tetrahydrocannabinol] | strongly inhibited | decreased | decreased | decreased | decreased | decreased | decreased | decreased | inhibited | tripled | tripled | tripled | doubled | tripled |
